Source: ChEMBL document CHEMBL1122566, “Resorcinol congeners of dopamine derived from benzocycloheptene and indan” (1984)

Legend:
[1] = tested on: Felis catus; assay: Effect on rise in arterial pressure in anesthetized cats at intravenous dose of 1000 ug/kg; format: functional, Artery
[2] = tested on: Felis catus; assay: Effect on rise in arterial pressure in anesthetized cats at intravenous dose of 100 ug/kg; format: functional, Artery
[3] = tested on: Felis catus; assay: Effect on increase in heart rate in anesthetized cats at intravenous dose of 100 ug/kg; format: functional
[4] = tested on: Felis catus; assay: Effect on increase in heart rate in anesthetized cats at intravenous dose of 300 ug/kg; format: functional
[5] = tested on: Felis catus; assay: Effect on rise in arterial pressure in anesthetized cats at intravenous dose of 300 ug/kg; format: functional, Artery
[6] = tested on: Felis catus; assay: Effect on rise in arterial pressure in anesthetized cats at intravenous dose of 30 ug/kg; format: functional, Artery
[7] = tested on: Felis catus; assay: Effect on increase in heart rate in anesthetized cats at intravenous dose of 30 ug/kg; format: functional

Compound	Arterial pressure [1] [mmHg]	Arterial pressure [2] [mmHg]	Heart rate [3] [beats min-1]	Heart rate [4] [beats min-1]	Arterial pressure [5] [mmHg]	Arterial pressure [6] [mmHg]	Heart rate [7] [beats min-1]
CCCN(CCC)C1Cc2cc(O)cc(O)c2C1 (centres undefined)	22.8	10	0	21.7			
NC1Cc2cc(O)cc(O)c2C1 (centres undefined)	70.3	13.3	0	7.3			
NC1CCCc2c(O)cc(O)cc2C1 (centres undefined)		40	11.7	42	78.7	25.3	4.3
